# Patent publication US20250339566A1, “INHIBITORS OF FIBROBLAST ACTIVATION PROTEIN” (UNIVERSITEIT ANTWERPEN, priority 2022, published 2025)
# Tests used:
# Human recombinant PREP = molecular target: T1, Human recombinant PREP (Homo sapiens, UniProt P48147); experiment: PREP IC50 measurement (N-succinyl-Gly-Pro-AMC); type: biochemical; details: FIG. 1, Compound 1 versus Compound 0
# T1 construct: made in house; host or cells: E. coli BL21(DE3)
# T1 sequence (P48147 1-710): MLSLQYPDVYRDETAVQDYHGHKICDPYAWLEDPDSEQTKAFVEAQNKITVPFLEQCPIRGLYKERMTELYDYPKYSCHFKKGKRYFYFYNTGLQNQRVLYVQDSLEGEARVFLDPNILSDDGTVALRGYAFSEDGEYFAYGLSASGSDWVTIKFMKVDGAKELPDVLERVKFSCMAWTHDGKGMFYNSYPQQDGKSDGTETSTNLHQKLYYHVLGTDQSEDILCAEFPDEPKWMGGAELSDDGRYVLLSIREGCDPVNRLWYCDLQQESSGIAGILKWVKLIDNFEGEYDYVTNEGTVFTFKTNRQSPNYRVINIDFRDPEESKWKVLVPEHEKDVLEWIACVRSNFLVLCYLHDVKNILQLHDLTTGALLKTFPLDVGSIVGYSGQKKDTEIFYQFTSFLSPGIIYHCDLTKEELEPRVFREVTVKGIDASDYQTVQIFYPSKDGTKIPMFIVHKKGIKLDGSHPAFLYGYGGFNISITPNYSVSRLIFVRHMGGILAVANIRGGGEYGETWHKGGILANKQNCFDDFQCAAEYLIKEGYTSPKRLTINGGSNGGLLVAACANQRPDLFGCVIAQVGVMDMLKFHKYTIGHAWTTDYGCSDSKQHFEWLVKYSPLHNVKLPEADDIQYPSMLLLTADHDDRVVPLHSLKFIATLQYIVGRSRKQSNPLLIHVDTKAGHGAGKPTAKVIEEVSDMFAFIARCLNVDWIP
# From the text: Used Enzymes in these Assays: • A gateway-entry clone for human FAP was purchased from Dharmacon (Accession number DQ891423) and the human secretion signal was replaced with the HoneyBee mellitin secretion signal. For transfection and expression of FAP in Sf9 insect cells the C-terminal BaculoDirect kit from LifeTechnologies was used. The enzyme was purified from the supernatant of the insect cells using immobilized Ni-chelating chromatography (GE healthcare, Diegem, Belgium), followed by anion-exchange chromatography using a 1 mL HiTrap Q and size exclusion chromatography using the Superdex 200 column (GE healthcare, Diegem, Belgium). • Human recombinant PREP was expressed in BL21(DE3) cells and purified using immobilized Co-chelating chromatography (GE healthcare), followed by anion-exchange chromatography on a 1 ml Mono Q column (GE healthcare). • DPP4 was purified from human seminal plasma. • Gateway-entry clones for human DPP8 and DPP9 were purchased from Dharmacon (Accession numbers DQ891733 and DQ892325 respectively). For transfection and expression of DPP8 and DPP9 in Sf9 insect cells the N-terminal BaculoDirect kit from LifeTechnologies was used. The enzymes were purified using immobilized Ni-chelating chromatography (GE healthcare, Diegem, Belgium), followed by anion-exchange chromatography using a 1 mL Mono Q (GE healthcare, Diegem, Belgium). • Recombinant human DPP2 was purchased from R&D.
# Eight concentrations of inhibitors/probe were tested. The final DMSO concentration was kept constant during the experiment to exclude any effects. Inhibitors were pre-incubated with the enzyme for 15 minutes at 37° C., afterwards the substrate was added and the velocities of AMC release were measured kinetically at λex=380 nm, λem=465 nm for at least 10 minutes at 37° C. […] Eight concentrations of inhibitors were tested. The final DMSO concentration in kept constant during the experiment to exclude any effects. Inhibitors were pre-incubated with the enzyme for 15 minutes at 37° C., afterwards the substrate was added and the velocities of AMC release were measured kinetically at λex=380 nm, λem=465 nm for at least 10 minutes at 37° C. […] At least eight different inhibitor concentrations were used. The final DMSO concentration is kept constant during the experiment to exclude any effects. Inhibitors were pre-incubated with the enzyme for 15 minutes at 37° C., afterwards the substrate was added and the velocities of pNA release were measured kinetically at 405 nm for at least 10 minutes at 37° C. Measurements were done on the Infinite 200 (Tecan Group Ltd.) and the Magellan software was used to process the data. • For DPP2: Initial velocity measurements were carried out. Lys-Ala-pNA was used as the substrate at a concentration of 1 mM at pH 5.5 (100 mM NaAc, 10 mM EDTA, 14 μg/mL aprotinin). Inhibitors were tested at one concentration, 5 μM, being the final concentration in the well. Inhibitors were pre-incubated with the enzyme for 15 minutes at 37° C., afterwards the substrate was added and the velocities of pNA release were measured kinetically at 405 nm for at least 10 minutes at 37° C. Measurements were done on the Infinite 200 (Tecan Group Ltd.) and the Magellan software was used to process the data.
# [1] = Partition coefficient (Log D) of radiotracer; type: physicochemical; details: organic solvent / aqueous solution (solvents not named); mean with standard deviation (n=8)
# Method: Radiotracer characterization: To assess the quality and suitability of compound 1 ([^18F]UAMC-4522) for specific applications, such as medical imaging, several parameters were determined. First, the decay-corrected RCY (Radiochemical Yield) was calculated. This indicates the percentage of the desired radioactively labeled molecule after correction for radioactive decay. It is calculated by dividing the amount of radioactively labeled molecule by the total radioactivity, taking into account the time elapsed since radiolabeling. Next, the Apparent Molar Activity (Am) was calculated. This represents the activity of the radiotracer per unit of substance (e.g. per micromole). It is calculated by dividing the activity of the radiotracer by the amount of labeled molecule used. Next, the Radiochemical Purity (RCP) was determined. This indicates the percentage of the radioactively labeled molecule relative to other chemical components or impurities. It is often determined using analytical techniques such as radio-HPLC (High-Performance Liquid Chromatography) or radio-TLC (Thin-Layer Chromatography). Finally, the Partition Coefficient (Log D) was calculated. This reflects the distribution of a substance between two solvents with different polarities. The Log D value represents the ratio of the concentrations of the substance in an organic solvent and an aqueous solution. […]
# [2] = In vivo stability of radiotracer in plasma; parameters: species or system CD1 nude mice; details: for Mean % intact radiotracer ± SD: CD1 nude mice
# Method: (§1) For all in vivo studies the following experimental procedure was used. Mice (7- to 8-week old female CD1−/− nude mice) were injected with 5.1-7.4 MBq of compound 1 (n=9) via the lateral tail vein. At 15, 30, 60 (n=3 for each time point) post-radiotracer injection (p.i.) the blood was collected in EDTA-coated tubes through cardiac puncture and the mice were euthanized by cervical dislocation.
# From the collected blood, the plasma fraction was obtained by centrifugation at 4,000 g for 7 min, and mixed (200 μL) with an equal volume of cold MeCN to enable sample deproteination. After vigorously vortexing and γ-counting, the samples were centrifuged at 4000 g for 4 min, and the supernatant and the pellet were γ-counted separately to determine the amount of recovered radioactivity in the organic phase. The radioactive contents of the supernatant were analyzed by analytical radio-HPLC. The eluate fractions were collected every 30 s and counted for radioactivity in an automated γ-counter.
# U87MG xenografts [3] = experiment: Ex vivo biodistribution in tumor-bearing animals; parameters: species or system mice; details: 60 min p.i.
# Method: In accordance with the PET results, the biodistribution study confirmed the high and specific tumor uptake of all FAP radioligands at 60 min post-injection (p.i.) (Table 6).
# [4] = Biodistribution in control animals (FIG. 3); type: in vivo; details: FIG. 3, normal CD1 nude mice, 15, 30, 60 min p.i.
# Method: as §1
# The uptake levels of the tracers were expressed as percentage of the injected dose per gram (% ID g^−1).
# FIG. 3 summarizes the tissue biodistribution (% injected dose/gram of tissue) of [^18F]UAMC-4522 (compound 1) and of compound 0 in normal CD1 nude mice after 15, 30, and 60 min p.i. (n=3 per timepoint).
# [5] = Metabolic stability comparison (FIG. 2); details: FIG. 2, Compound 1 versus Compound 0
# U87MG xenografts [6] = details: mouse
# Method: Dynamic whole-body PET images were acquired during 60 min. The average tumor or muscle activity per volume was obtained from the PET images and the decay-corrected time-activity curves (TACs) were extracted. At the end of the scans, the organs and tissues were harvested, weighed and the radioactivity in the samples was measured using an automatic γ-counter.
# [7] = female, CD1-/- nude, in vivo, 60 min
structure (smiles),measurement,setting,value
[2H]C([2H])([18F])[N+](C)(C)CCCOc1ccc2nccc(C(=O)NCC(=O)N3CC(F)(F)C[C@H]3C#N)c2c1 [Compound 1],selectivity for FAP with respect to PREP (in words),Human recombinant PREP,significantly higher selectivity for FAP
same,logD,[1],-1.77 ± 0.01
same,Mean % intact radiotracer ± SD,[2]; 15 min p.i.,74.84 ± 6.62%
same,Mean % intact radiotracer ± SD,[2]; 30 min p.i.,60.23 ± 3.60%
same,Mean % intact radiotracer ± SD,[2]; 60 min p.i.,56.47 ± 7.81%
same,Mean % intact radiotracer ± SD,[2]; time 0 min,99.12 ± 0.51%
same,in vivo stability (in words),[2]; compared with the control [68Ga]Ga-DOTA-FAPI-04,significantly higher
same,Tumor (% ID/g),U87MG xenografts [3],10.98 ± 1.73 % ID/g
same,Tumor-to-blood,U87MG xenografts [3],6.35 ± 1.08
same,Tumor-to-liver,U87MG xenografts [3],4.77 ± 0.58
same,Tumor-to-muscle,U87MG xenografts [3],6.54 ± 1.36
same,Tumor-to-small intestine,U87MG xenografts [3],2.43 ± 0.12
same,biodistribution / excretion profile (in words),[4],biodistribution profile including urinary excretion
same,metabolic stability (in words),[5],significantly higher metabolic stability
same,tumor uptake (PET),U87MG xenografts [6]; [7],10.16±2.22 % ID/mL
same,uptake in the muscle (PET),U87MG xenografts [6]; [7],2.20±0.33 % ID/mL
same,uptake into tumor tissue in vivo (in words),U87MG xenografts [6],significantly higher uptake
same,nonspecific tumor uptake (in words),U87MG xenografts [6]; in vivo,lower nonspecific tumor uptake
same,tumor time-activity curve (in words),U87MG xenografts [6]; in vivo,early peak uptake in the tumor followed by retention or slight increase in the tumor
same,"tumor uptake after pre-injection of UAMC-1110 (blocking study, in words)",U87MG xenografts [6]; in vivo,decrease in tumor uptake
